{"source": "ChEMBL document CHEMBL1154895", "about": "“Cytotoxic neoclerodane diterpenoids from Scutellaria barbata” (J Nat Prod, 2010)", "tested_on": "SK-BR-3", "assay": "Cytotoxicity against human SK-BR-3 cells after 48 hrs by MTT assay", "format": "functional, cell-based", "settings": "SK-BR-3, 48 h", "data": [{"smiles": "CC(=O)O[C@@H](CC1=C(O)C(=O)OC1)[C@]1(C)[C@H]2CCC=C(C)[C@]2(C)[C@@H](OC(=O)c2ccccc2)[C@H](OC(=O)c2ccccc2)[C@]1(C)O", "note": "(mixture of isomers) [SCUTEBATA A]", "values": [{"measurement": "IC50", "value": 15.2, "unit": "µM"}]}]}
